Measured values from patent publication US20220313693A1, “METHODS OF TREATING HIV IN PEDIATRIC PATIENTS WITH RILPIVIRINE” (priority 2019, published 2022).
Read-outs that look alike come from different tables or passages of the source.

Experiments:
[1] = adult and pediatric participants receiving abacavir in clinical studies; cited from earlier work
[2] = Adults, pooled ECHO/THRIVE, RPV 25 mg qd, N=44; cited from earlier work
[3] = Intensive PK assessment of RPV at steady state, Phase II open-label trial in ARV-naive HIV-1 infected adolescents and children; conditions: RPV 25 mg qd multiple dose
clinical = conditions: human, in vivo, 25 mg, mean ± SD, RPV 25 mg qd multiple dose; for AUC(0-t): AUC24h
[4] = Adolescents (Cohort 1, ≥12 to <18 years), N=23
[5] = Children ≥6-<12 years (Cohort 2), all bodyweights, N=10, preliminary analysis
[6] = Children ≥6-<12 years (Cohort 2), ≥25 kg only, N=5, preliminary analysis

Compound	Participants with hypersensitivity reactions [1]	AUC24h, mean ± SD [2]	C0h (predose plasma concentration), mean ± SD [2]	Cmax, mean ± SD [2]	Cmin, mean ± SD [2]	C0h (predose plasma concentration), mean ± SD [3, 4]	Cmin, mean ± SD [3, 4]	tmax, median [range] [3, 4]	C0h (predose plasma concentration), mean ± SD [3, 5]	Cmin, mean ± SD [3, 5]	C0h (predose plasma concentration), mean ± SD [3, 6]	Cmin, mean ± SD [3, 6]	tmax, median [range] [3, 6]	AUC(0-t) (clinical; [4])	AUC(0-t) (clinical; [5])	AUC(0-t) (clinical; [6])	Cmax (clinical; [5])	Cmax (clinical; [6])
Nc1nc(NC2CC2)c2ncn([C@H]3C=C[C@@H](CO)C3)c2n1 [abacavir]	approximately 5%																	
Cc1cc(/C=C/C#N)cc(C)c1Nc1ccnc(Nc2ccc(C#N)cc2)n1 [RPV, Rilpivirine]		2005 ± 970 ng·h/mL	67.6 ± 39.0 ng/mL	134 ± 72.0 ng/mL	53.7 ± 28.3 ng/mL	80.8 ± 40.4 ng/mL	57.1 ± 26.3 ng/mL	5.00 (2.00-9.03) h	118 ± 61.5 ng/mL	77 ± 38.4 ng/mL	104 ± 57 ng/mL	74 ± 29.7 ng/mL	4.00 (1.97-9.00) h	1870 ± 717 ng·h/mL	3020 ± 1610 ng·h/mL	2450 ± 735 ng·h/mL	182 ± 110 ng/mL	136 ± 46.1 ng/mL
